Patent US7625948B2, “Ester compound and medicinal use thereof” (Japan Tobacco Inc., priority 2002, dated 2009)
Where two headings read alike, the source gives them in different places.

Test system: HepG2 cells
Assay: Test Example 2: inhibition of apolipoprotein B secretion from HepG2 cells, ELISA (also used for metabolites in Test Example 8)
Type: cell-based
Conditions: Homo sapiens
Protocol: Inhibition of Apolipoprotein B Secretion from HepG2 Cells
HepG2 cells were suspended in Dulbecco's Modified Eagle's Medium (DMEM) (containing 10% fetal bovine serum, 100 units/mL penicillin and 100 μg/mL streptomycin), and placed on a 96-well plate (4×10^4 cells/well), then incubated for 24 hours. After removal of the medium, DMEM was replaced by a medium containing a sample dissolved in DMSO or a medium containing DMSO (concentration of DMSO: 0.5%) and incubation was further performed for 24 hours, after which the supernatant was recovered, and concentration of apo B in the supernatant was assayed by Enzyme-Linked Immunosorbent Assay (ELISA)
ELISA was carried out as follows. Anti-human apo B monoclonal antibody (0.5 μg/well) diluted with a solution of sodium carbonate in sodium bicarbonate buffer (50 mL, pH 9.6) was placed in a 96-well plate for ELISA, and allowed to stand at room temperature for 15 hours. After washing the plate, a blocking solution (250 μL/well) was placed in the well, and allowed to stand at room temperature for 1.5 hours. After washing the plate, a standard and a sample (100 μL/well) were placed in the well and allowed to stand at room temperature for one hour. The standard was prepared by adjusting the concentration of the purified human apo B with the DMEM to 0 to 1000 ng/mL. After washing the plate, an anti-human apo B polyclonal antibody labeled with a horse radish peroxidase which was diluted in 1:1000 with DEME (100 μL/well), and allowed to stand at room temperature for one hour. After washing the plate, 2,2-azinobis(3-ethylbenzothiazoline-6-sulfonic acid) solution (100 μL/well) was placed in the well, and allowed to stand at room temperature for one hour. The reaction was stopped by addition of 2% oxalic acid (100 μL/well), and absorbency at 405 nm was measured. Concentration of apo B in the sample was calculated on the basis of a standard curve of the standard. Inhibition rate (%) was calculated from the assayed values in accordance with the following equation.
Inhibition rate (%)=100×(1 minus (concentration of apo B in sample group/concentration of apo B in DMSO group).
Based on the above equation, 50% inhibition concentration (IC50) was determined.
Inhibitory Activity on MTP and apo B Secretion Inhibition by Metabolites
In a similar manner to Test Examples 1 and 2, the activity of metabolites was assayed.

[1] = 24 hours, apo B in supernatant by ELISA, read-out: Test Example 2 Inhibition of apo B secretion IC50

| SMILES | IC50 (main metabolites of the compounds (Test Example 8), read-out: Inhibition of apo B secretion IC50) [nM] | IC50 [1] [nM] |
| --- | --- | --- |
| O=C(O)Cc1ccc(NC(=O)c2ccccc2-c2ccc(C(F)(F)F)cc2)c(C(=O)N2CCCC2)c1 | > 10000 |  |
| COCCNC(=O)C(COC(=O)Cc1ccc(NC(=O)c2ccccc2-c2ccc(C(F)(F)F)cc2)cc1)(C(=O)NCCOC)c1ccccc1 [Example 1-73] |  | 39 |
| CCOC(=O)C(COC(=O)Cc1ccc(NC(=O)c2sc(C)nc2-c2ccc(C(F)(F)F)cc2)cc1)(C(=O)OCC)c1ccccc1 [Example 1-74] |  | 680 |
| CCNC(=O)C(COC(=O)Cc1ccc(NC(=O)c2sc(C)nc2-c2ccc(C(F)(F)F)cc2)cc1)(C(=O)NCC)c1ccccc1 [Example 1-75] |  | 97 |
| CCNC(=O)C(COC(=O)Cc1ccc(NC(=O)c2cccnc2-c2ccc(C(F)(F)F)cc2)cc1)(C(=O)NCC)c1ccccc1 [Example 1-76] |  | 120 |
| CCNC(=O)C(COC(=O)Cc1ccc(NC(=O)c2cccnc2-c2ccc(C(F)(F)F)cc2)c(C)c1)(C(=O)NCC)c1ccccc1 [Example 1-77] |  | 360 |
| CCOC(=O)C(COC(=O)Cc1ccc(NC(=O)c2ccccc2-c2ccc(C(F)(F)F)cc2)c(CC)c1)(C(=O)OCC)c1ccccc1 [Example 1-78] |  | 11 |
| CCNC(=O)C(COC(=O)Cc1ccc(NC(=O)c2ccccc2-c2ccc(C(F)(F)F)cc2)c(C(C)C)c1)(C(=O)NCC)c1ccccc1 [Example 1-79] |  | 0.59 |
| CCOC(=O)C(COC(=O)Cc1ccc(NC(=O)c2ccccc2-c2ccc(C(F)(F)F)cc2)c(C(C)C)c1)(C(=O)OCC)c1ccccc1 [Example 1-80] |  | 8.2 |
| CCNC(=O)C(CCOC(=O)Cc1ccc(NC(=O)c2ccccc2-c2ccc(C(F)(F)F)cc2)c(CC)c1)(C(=O)NCC)c1ccccc1 [Example 1-81] |  | 0.49 |
| CCNC(=O)C(COC(=O)Cc1ccc(NC(=O)c2ccccc2-c2ccc(C(F)(F)F)cc2)c(CC(C)C)c1)(C(=O)NCC)c1ccccc1 [Example 1-82] |  | 0.53 |
| CCOC(=O)C(COC(=O)Cc1ccc(NC(=O)c2ccccc2-c2ccc(C(F)(F)F)cc2)c(CC(C)C)c1)(C(=O)OCC)c1ccccc1 [Example 1-83] |  | 0.23 |
| CCOC(=O)C(COC(=O)Cc1ccc(NC(=O)c2ccccc2-c2ccc(C(F)(F)F)cc2)c(Cl)c1)(C(=O)OCC)c1ccccc1 [Example 1-84] |  | 4.4 |
| CCOC(=O)C(COC(=O)Cc1ccc(NC(=O)c2ccccc2-c2ccc(C(F)(F)F)cc2)c(Br)c1)(C(=O)OCC)c1ccccc1 [Example 1-85] |  | 3.2 |
| CCOC(=O)C(COC(=O)Cc1ccc(NC(=O)c2ccccc2-c2ccc(C(F)(F)F)cc2)c(C(=O)N(CC)CC)c1)(C(=O)OCC)c1ccccc1 [Example 2-10] |  | 1.4 |
| CCNC(=O)C(COC(=O)Cc1ccc(NC(=O)c2ccccc2-c2ccc(C(F)(F)F)cc2)c(C(=O)N(C)C(C)C)c1)(C(=O)NCC)c1ccccc1 [Example 2-12] |  | 7 |
| CCNC(=O)C(COC(=O)Cc1ccc(NC(=O)c2ccccc2-c2ccc(C(F)(F)F)cc2)c(C(=O)N2CCCCC2)c1)(C(=O)NCC)c1ccccc1 [Example 2-16] |  | 2.7 |
| CCCN(C)C(=O)c1cc(CC(=O)OCC(C(=O)NCC)(C(=O)NCC)c2ccccc2)ccc1NC(=O)c1ccccc1-c1ccc(C(F)(F)F)cc1 [Example 2-19] |  | 26 |
| CCCN(C)C(=O)c1cc(CC(=O)OCCC(C(=O)NCC)(C(=O)NCC)c2ccccc2)ccc1NC(=O)c1ccccc1-c1ccc(C(F)(F)F)cc1 [Example 2-20] |  | 0.64 |
| CCC(=O)N[C@@H](COC(=O)Cc1ccc(NC(=O)c2ccccc2-c2ccc(C(F)(F)F)cc2)c(C(=O)N(C)C)c1)c1ccccc1 [Example 2-24] |  | 28 |
| CN(C)C(=O)c1cc(CC(=O)OC[C@H](c2ccccc2)N2C(=O)CCC2=O)ccc1NC(=O)c1ccccc1-c1ccc(C(F)(F)F)cc1 [Example 2-26] |  | 8.2 |

| SMILES | IC50 (main metabolites of the compounds (Test Example 8), read-out: Inhibition of apo B secretion IC50) [nM] | IC50 [1] [nM] |
| --- | --- | --- |
| CC(C)N[C@@H](COC(=O)Cc1ccc(NC(=O)c2ccccc2-c2ccc(C(F)(F)F)cc2)c(C(=O)N(C)C)c1)c1ccccc1 [Example 2-29] |  | 91 |
| CCNC(=O)C(COC(=O)Cc1ccc(NC(=O)c2ccccc2C(F)(F)F)c(C(=O)N(C)C)c1)(C(=O)NCC)c1ccccc1 [Example 2-30] |  | 27 |
| CCOC(=O)C(COC(=O)Cc1ccc(NC(=O)c2ccccc2C(F)(F)F)c(C(=O)N(C)C)c1)(C(=O)OCC)c1ccccc1 [Example 2-31] |  | 43 |
| CCOC(=O)C(CCOC(=O)Cc1ccc(NC(=O)c2ccccc2-c2ccc(C(F)(F)F)cc2)c(C(=O)N(C)C)c1)(C(=O)OCC)c1ccccc1 [Example 2-32] |  | 1.7 |
| CCOC(=O)C(COC(=O)Cc1ccc(NC(=O)c2ccccc2-c2ccc(F)cc2)c(C(=O)N(C)C)c1)(C(=O)OCC)c1ccccc1 [Example 2-33] |  | 13 |
| CCOC(=O)C(COC(=O)Cc1ccc(NC(=O)c2ccccc2-c2ccc(Br)cc2)c(C(=O)N(C)C)c1)(C(=O)OCC)c1ccccc1 [Example 2-34] |  | 2 |
| CC(=O)N[C@H](COC(=O)Cc1ccc(NC(=O)c2ccccc2-c2ccc(C(F)(F)F)cc2)c(C(=O)N(C)C)c1)c1ccccc1 [Example 2-35] |  | 38 |
| CCCC(=O)N[C@H](COC(=O)Cc1ccc(NC(=O)c2ccccc2-c2ccc(C(F)(F)F)cc2)c(C(=O)N(C)C)c1)c1ccccc1 [Example 2-36] |  | 7.4 |
| CCOC(=O)C(COC(=O)Cc1ccc(NC(=O)c2ccccc2-c2ccc(C(F)(F)F)cc2)c(C(=O)N(C)C)c1)(C(=O)OCC)C1CCCC1 [Example 2-40] |  | 0.99 |
| CCOC(=O)C(COC(=O)Cc1ccc(NC(=O)c2ccccc2-c2ccc(C(F)(F)F)cc2)c(C(=O)N(C)C)c1)(C(=O)OCC)C1CCCCC1 [Example 2-41] |  | 1.2 |
| CCOC(=O)C(COC(=O)Cc1ccc(NC(=O)c2ccccc2-c2ccc(Cl)cc2)c(C(=O)N(C)C)c1)(C(=O)OCC)c1ccccc1 [Example 2-42] |  | 1.8 |
| CCOC(=O)C(COC(=O)Cc1ccc(NC(=O)c2ccccc2-c2ccc(C(C)=O)cc2)c(C(=O)N(C)C)c1)(C(=O)OCC)c1ccccc1 [Example 2-43] |  | 9 |
| CCNC(=O)C(COC(=O)Cc1ccc(NC(=O)c2ccccc2Oc2ccccc2)c(C(=O)N(C)C)c1)(C(=O)NCC)c1ccccc1 [Example 2-44] |  | 33 |
| CCOC(=O)C(COC(=O)Cc1ccc(NC(=O)c2ccccc2Oc2ccccc2)c(C(=O)N(C)C)c1)(C(=O)OCC)c1ccccc1 [Example 2-45] |  | 39 |
| CCOC(=O)C(COC(=O)Cc1ccc(NC(=O)c2ccccc2-c2ccc(C#N)cc2)c(C(=O)N(C)C)c1)(C(=O)OCC)c1ccccc1 [Example 2-46] |  | 2.9 |
| CCOC(=O)C(COC(=O)Cc1ccc(NC(=O)c2cc(C)ccc2-c2ccc(C(F)(F)F)cc2)c(C(=O)N(C)C)c1)(C(=O)OCC)c1ccccc1 [Example 2-47] |  | 1.2 |
| CN(C)C(=O)c1cc(CC(=O)OC[C@@H](NS(C)(=O)=O)c2ccccc2)ccc1NC(=O)c1ccccc1-c1ccc(C(F)(F)F)cc1 [Example 2-49] |  | 49 |
| CCOC(=O)C(COC(=O)Cc1ccc(NC(=O)c2ccccc2-c2ccc(C(F)(F)F)cc2)c(C(=O)N(C)C)c1)c1ccccc1 (centres unmarked) [Example 2-50] |  | 21 |
| CCC(=O)N(C)[C@H](COC(=O)Cc1ccc(NC(=O)c2ccccc2-c2ccc(C(F)(F)F)cc2)c(C(=O)N(C)C)c1)c1ccccc1 [Example 2-51] |  | 47 |
| CCOC(=O)C(COC(=O)Cc1ccc(NC(=O)c2ccc(OC)cc2-c2ccc(C(F)(F)F)cc2)c(C(=O)N(C)C)c1)(C(=O)OCC)c1ccccc1 [Example 2-53] |  | 4.6 |
